Columns and labels:
PDGFRα kinase = target: T1, PDGFRα kinase (Homo sapiens, UniProt P16234); test: PDGFRα kinase assay (AlphaScreen); type: biochemical; conditions: read-out: Ranking of IC50 values, PDGFRα
T1 construct: purchased SignalChem
Description: Inhibition of PDGFRα kinase activity by a test compound disclosed herein was estimated by AlphaScreen (PerkinElmer). Standard assay conditions were 1.5 ng of recombinant PDGFRα kinase (SignalChem) with 6 ng Biotin-conjugated Poly-(Glu 4: Tyr 1) (Cisbio) in the assay buffer (10 μM ATP, 10 mM MOPs, pH 7.0, 0.21 mM EDTA, 0.5% glycerol, 1 mg/mL BSA, 0.01% 2-mercaptoethanol, 0.001% Brij35, 10 mM MgCl2) in a final volume of 25 μL. Reactions were incubated at 30° C. for 30 min and stopped by adding […] of 50 mM EDTA. Analysis of resulting product using an AlphaScreen kit and counted with Enspire Alpha (PerkinElmer). […] The IC50 values of inhibitors were determined after carrying out assays with each compound at serially diluted concentrations in duplication. The results were analyzed using linear regression software (GraphPad Prism 5; GraphPad Software Inc.)

FLT3 kinase = target: T2, FLT3 kinase (Homo sapiens, UniProt P36888); test: FLT3 kinase assay (AlphaScreen); type: biochemical; conditions: read-out: Ranking of IC50 values, FLT3
T2 construct: purchased SignalChem
T2 sequence (P36888 27-993): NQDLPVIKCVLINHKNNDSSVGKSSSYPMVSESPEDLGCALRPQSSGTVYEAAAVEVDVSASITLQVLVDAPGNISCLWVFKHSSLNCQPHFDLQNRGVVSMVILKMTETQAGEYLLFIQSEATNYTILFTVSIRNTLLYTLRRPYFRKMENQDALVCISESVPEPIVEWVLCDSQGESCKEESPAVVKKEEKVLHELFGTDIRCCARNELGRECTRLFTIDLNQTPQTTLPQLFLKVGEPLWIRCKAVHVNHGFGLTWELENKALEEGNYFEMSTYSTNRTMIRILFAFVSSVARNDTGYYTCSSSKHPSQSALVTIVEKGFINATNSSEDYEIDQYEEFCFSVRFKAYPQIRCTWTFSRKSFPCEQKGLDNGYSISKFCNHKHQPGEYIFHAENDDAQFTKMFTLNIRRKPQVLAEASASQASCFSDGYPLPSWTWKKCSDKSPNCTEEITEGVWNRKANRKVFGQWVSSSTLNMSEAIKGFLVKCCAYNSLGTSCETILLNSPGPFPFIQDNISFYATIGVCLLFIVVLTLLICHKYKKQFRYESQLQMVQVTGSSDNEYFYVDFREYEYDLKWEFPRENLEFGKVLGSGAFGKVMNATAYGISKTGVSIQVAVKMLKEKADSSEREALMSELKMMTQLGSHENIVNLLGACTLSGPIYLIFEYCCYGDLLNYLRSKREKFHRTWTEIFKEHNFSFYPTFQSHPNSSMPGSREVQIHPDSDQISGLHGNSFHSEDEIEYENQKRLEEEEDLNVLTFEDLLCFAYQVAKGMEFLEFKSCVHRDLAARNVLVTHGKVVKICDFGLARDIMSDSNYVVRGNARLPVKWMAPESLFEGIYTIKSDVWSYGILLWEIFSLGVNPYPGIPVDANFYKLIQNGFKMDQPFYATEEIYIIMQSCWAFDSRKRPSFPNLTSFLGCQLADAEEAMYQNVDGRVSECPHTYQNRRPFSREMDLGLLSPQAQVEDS
Description: Inhibition of FLT3 kinase activity by a test compound disclosed herein was estimated by AlphaScreen (PerkinElmer, […]). Standard assay conditions were 1.5 ng of recombinant FLT3 kinase (SignalChem, Richmond, BC, Canada) with 6 ng Biotin-conjugated Poly-(Glu 4: Tyr 1) (Cisbio, Bedford, MA, USA) in the assay buffer (10 μM ATP, 10 mM MOPs, pH7.0, 0.21 mM EDTA, 0.5% glycerol, 1 mg/mL BSA, 0.01% 2-mercaptoethanol, 0.001% Brij35, 10 mM MgCl2) in a final volume of 25 μL. Reactions were incubated at 30° C. for 30 min and stopped by adding 5 μL of 50 mM EDTA. Analysis of resulting product using an AlphaScreen kit and counted with Enspire Alpha (PerkinElmer, Waltham, MA, USA). […] The IC50 values of inhibitors were determined after carrying out assays with each compound at serially diluted concentrations in duplication. The results were analyzed using linear regression software (GraphPad Prism 5; GraphPad Software Inc.)

[1] = tested on: phosphorylation of FLT3 and its down-stream effector STAT5; test: Western blotting of p-FLT3 and p-STAT5 in MV4-11 cells; type: cell-based; conditions: Homo sapiens; at 30 nM treatment, 3 hours, FLT3-ITD positive MV4-11 leukemia cells; read-out: inhibition activity against phosphorylation of FLT3 and its down-stream effector STAT5
Description: The potent compounds of formula (I) in EXAMPLE 2 were evaluated, by western blotting assay, for their cellular potencies against phosphorylation of FLT3 and its down-stream effector STAT5 in MV4-11 leukemia cell line with constitutive activation of FLT3 signaling. For western blotting experiments, MV4-11 cells were cultured in IMDM medium containing 0.1% FBS overnight. On the assay day, three million cells were treated with or without compounds for 3 hours in 15 mL tubes. Then, the whole cell lysates were harvested, following extraction by adding 2×SDS Sample Buffer and boiling on hot plate at 105° C. for 15 minutes. The resulting cell lysates were separated by SDS-PAGE electrophoresis and transferred to PVDF membrane. Protein expression was detected using immunoblot with corresponding primary antibody and secondary antibody following the standard procedures. Antibody against p-FLT3 (Tyr-591), anti-rabbit IgG HRP-linked secondary antibody, and anti-mouse IgG HRP-linked secondary antibody were purchased from Cell Signaling Technology. Antibody against p-STAT5 (Tyr-694) was purchased from BD biosciences. Antibody against actin was purchased from R&D system. […] Band intensities of western blot were also quantified by ChemiDoc™ MP Imaging System. Relative intensities of bandscorresponding to drug treatments at a single concentration (30 nM) were compared to the DMSO control group. The percentage (%) inhibition at each drug concentration was calculated using the formula: Percentage(%)inhibition=(1−Relative intensity)×100.

T1 sequence (P16234 24-1089): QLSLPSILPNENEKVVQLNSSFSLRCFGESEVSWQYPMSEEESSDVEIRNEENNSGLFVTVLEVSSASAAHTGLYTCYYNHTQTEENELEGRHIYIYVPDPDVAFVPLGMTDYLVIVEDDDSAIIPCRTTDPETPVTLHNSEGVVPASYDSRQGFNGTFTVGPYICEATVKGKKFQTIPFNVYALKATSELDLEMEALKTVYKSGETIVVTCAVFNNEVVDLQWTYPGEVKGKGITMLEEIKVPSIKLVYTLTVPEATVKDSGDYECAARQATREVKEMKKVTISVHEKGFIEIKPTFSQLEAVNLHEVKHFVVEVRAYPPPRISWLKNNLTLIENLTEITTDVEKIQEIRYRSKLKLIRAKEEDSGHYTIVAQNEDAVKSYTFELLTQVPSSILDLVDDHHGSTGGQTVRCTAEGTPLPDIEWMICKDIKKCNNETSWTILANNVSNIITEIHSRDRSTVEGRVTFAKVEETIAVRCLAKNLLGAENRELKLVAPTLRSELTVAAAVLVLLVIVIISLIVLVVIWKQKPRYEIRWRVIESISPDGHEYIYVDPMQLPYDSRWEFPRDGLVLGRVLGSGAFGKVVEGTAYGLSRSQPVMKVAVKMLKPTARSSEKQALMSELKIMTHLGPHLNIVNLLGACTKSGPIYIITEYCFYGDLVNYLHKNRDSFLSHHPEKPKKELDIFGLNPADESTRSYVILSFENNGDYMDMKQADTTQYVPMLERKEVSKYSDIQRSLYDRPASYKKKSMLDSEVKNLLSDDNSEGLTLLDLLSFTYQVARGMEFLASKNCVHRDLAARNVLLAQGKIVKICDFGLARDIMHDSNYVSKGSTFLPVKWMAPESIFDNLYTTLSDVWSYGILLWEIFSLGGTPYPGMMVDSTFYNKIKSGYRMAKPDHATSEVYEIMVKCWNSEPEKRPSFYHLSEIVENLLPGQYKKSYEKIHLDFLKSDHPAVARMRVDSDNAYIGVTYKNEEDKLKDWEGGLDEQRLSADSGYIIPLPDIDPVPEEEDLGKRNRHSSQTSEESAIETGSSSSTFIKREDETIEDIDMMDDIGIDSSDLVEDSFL

Structure (SMILES) | IC50 (PDGFRα kinase) [µM] | IC50 (FLT3 kinase) [µM] | inhibition at 0.03 µM [1] [%]
CN(C)c1ccc(-c2cc3c(s2)Cc2c(-c4ccc5cnn(C)c5c4)n[nH]c2-3)cn1 [Compound 5, N,N-dimethyl-5-(3-(1-methyl-1H-indazol-6-yl)-1,4-dihydrothieno [2′,3′:4,5]cyclopenta[1,2-c]pyrazol-6-yl)pyridin-2-amine] | 0.01 to 0.03 | 0.001 to 0.01 | –
c1cc(-c2cc3c(s2)Cc2c(-c4ccc5cn[nH]c5c4)n[nH]c2-3)ccc1CN1CCOCC1 [Compound 6, 4-(4-(3-(1H-indazol-6-yl)-1,4-dihydrothieno[2′,3′:4,5]cyclopenta[1,2-c]pyrazol-6-yl)benzyl)morpholine] | 0.001 to 0.01 | < 0.001 | > 50
C[C@@H]1CN(Cc2ccc(-c3cc4c(s3)Cc3c(-c5ccc6cn[nH]c6c5)n[nH]c3-4)cc2)C[C@H](C)O1 [Compound 7, (2S,6R)-4-(4-(3-(1H-indazol-6-yl)-1,4-dihydrothieno[2′,3′:4,5]cyclopenta [1,2-c]pyrazol-6-yl)benzyl)-2,6-dimethylmorpholine] | 0.001 to 0.01 | 0.001 to 0.01 | > 50
Cn1ncc2ccc(-c3n[nH]c4c3Cc3sc(-c5ccc(CN6CCOCC6)cc5)cc3-4)cc21 [Compound 8, 4-(4-(3-(1-methyl-1H-indazol-6-yl)-1,4-dihydro-thieno[2′,3′:4,5]cyclopenta [1,2-c]pyrazol-6-yl)benzyl) morpholine] | 0.001 to 0.01 | < 0.001 | > 50
C[C@@H]1CN(Cc2ccc(-c3cc4c(s3)Cc3c(-c5ccc6cnn(C)c6c5)n[nH]c3-4)cn2)C[C@H](C)O1 [Compound 9, (2S,6R)-2,6-dimethyl-4-((5-(3-(1-methyl-lH-indazol-6-yl)-1,4-dihydro-thieno[2′,3′:4,5]cyclopenta [1,2-c]pyrazol-6-yl)pyridin-2-yl)methyl) morpholine] | 0.001 to 0.01 | < 0.001 | > 50
Cc1ccc(-c2cc3c(s2)Cc2c(-c4ccc5cnn(C)c5c4)n[nH]c2-3)cn1 [Compound 11, 3-(1-methyl-1H-indazol-6-yl)-6-(6-methylpyridin-3-yl)-1,4-dihydrothieno [2′,3′:4,5]cyclopenta[1,2-c] pyrazole] | 0.01 to 0.03 | 0.001 to 0.01 | –
CN1CCN(Cc2cccc(-c3cc4c(s3)Cc3c(-c5ccc6cnn(C)c6c5)n[nH]c3-4)c2)CC1 [Compound 14, 3-(1-methyl-1H-indazol-6-yl)-6-(3-((4-methylpiperazin-1-yl)methyl)phenyl)-1,4-dihydrothieno [2′,3′:4,5]cyclopenta[1,2-c] pyrazole] | 0.01 to 0.03 | 0.001 to 0.01 | –
Cc1cc(-c2cc3c(s2)Cc2c(-c4ccc5cnn(C)c5c4)n[nH]c2-3)ccc1CN1CCOCC1 [Compound 26, 4-(2-methyl-4-(3-(1-methyl-1H-indazol-6-yl)-1,4-dihydrothieno[2′,3′:4,5]cyclopenta[1,2-c]pyrazol-6-yl)benzyl)morpholine] | 0.01 to 0.03 | 0.001 to 0.01 | –
Cn1ncc2ccc(-c3n[nH]c4c3Cc3sc(-c5ccc(CN6CCOCC6)c(C(F)(F)F)c5)cc3-4)cc21 [Compound 27, 4-(4-(3-(1-methyl-1H-indazol-6-yl)-1,4-dihydrothieno[2′,3′:4,5]cyclopenta[1,2-c]pyrazol-6-yl)-2-(trifluoromethyl)benzyl)morpholine] | 0.1 to 0.3 | 0.001 to 0.01 | –
CC(C)Cn1ncc2ccc(-c3n[nH]c4c3Cc3sc(-c5ccc(CN6CCOCC6)cc5)cc3-4)cc21 [Compound 35, 4-(4-(3-(1-isobutyl-1H-indazol-6-yl)-1,4-dihydro-thieno[2′,3′:4,5]cyclopenta [1,2-c]pyrazol-6-yl)benzyl)morpholine] | 0.03 to 0.1 | 0.001 to 0.01 | –
Cn1ncc2ccc(-c3n[nH]c4c3Cc3sc(-c5ccc(CN6CCC(F)(F)C6)cc5)cc3-4)cc21 [Compound 67, 6-(4-((3,3-difluoro-pyrrolidin-1-yl)methyl)phenyl)-3-(1-methyl-1H-indazol-6-yl)-1,4-dihydro-thieno[2′,3′:4,5]cyclopenta [1,2-c]pyrazole] | 0.01 to 0.03 | 0.001 to 0.01 | –
Cn1ncc2ccc(-c3n[nH]c4c3Cc3sc(-c5cccc(OCCN6CCOCC6)c5)cc3-4)cc21 [Compound 70, 4-(2-(3-(3-(1-methyl-1H-indazol-6-yl)-1,4-dihydro-thieno[2′,3′:4,5]cyclopenta [1,2-c]pyrazol-6-yl)phenoxy)ethyl)morpholine] | 0.01 to 0.03 | 0.001 to 0.01 | –
CN(c1ccc(-c2cc3c(s2)Cc2c(-c4ccc5cnn(C)c5c4)n[nH]c2-3)cc1)C1CCOCC1 [Compound 73, N-methyl-N-(4-(3-(1-methyl-1H-indazol-6-yl)-1,4-dihydrothieno [2′,3′:4,5]cyclopenta [1,2-c]pyrazol-6-yl)phenyl)tetrahydro-2H-pyran-4-amine] | 0.03 to 0.1 | 0.001 to 0.01 | –
Cn1ncc2ccc(-c3n[nH]c4c3Cc3sc(-c5ccc(C=C6CCOCC6)cc5)cc3-4)cc21 [Compound 76, 3-(1-methyl-1H-indazol-6-yl)-6-(4-((tetrahydro-4H-pyran-4-ylidene)methyl)phenyl)-1,4-dihydrothieno[2′,3′:4,5] cyclopenta[1,2-c]pyrazole] | 0.1 to 0.3 | 0.001 to 0.01 | –
Cn1ncc2ccc(-c3n[nH]c4c3Cc3sc(-c5ccc(CC6CCOCC6)cc5)cc3-4)cc21 [Compound 77, 3-(1-methyl-1H-indazol-6-yl)-6-(4-((tetrahydro-2H-pyran-4-yl)methyl)phenyl)-1,4-dihydrothieno [2′,3′:4,5]cyclopenta [1,2-c]pyrazole] | 0.03 to 0.1 | 0.001 to 0.01 | –
Cn1ncc2ccc(-c3n[nH]c4c3Cc3sc(-c5ccc(CN6CC(F)(F)C6)cc5)cc3-4)cc21 [Compound 104, 6-(4-((3,3-difluoroazeti-din-1-yl)methyl)phenyl)-3-(1-methyl-1H-indazol-6-yl)-1,4-dihydrothieno [2′,3′:4,5]cyclopenta [1,2-c]pyrazole] | 0.03 to 0.1 | 0.001 to 0.01 | –

Reference: patent US12448394B2, “Heterocyclic pyrazole derivatives as type III receptor tyrosine kinase inhibitors” (DEVELOPMENT CENTER FOR BIOTECHNOLOGY, priority 2019, dated 2025)
